Results: publication PMC8372404 (Frontiers in Neuroscience, 2021)
Where two headings read alike, the source gives them in different places.

How the values were obtained:
[1] = molecular target: [3H]-LCGA-17 binding site in rat brain membranes (putative α2δ); assay: [3H]-LCGA-17 radioligand competition binding assay
Danio rerio [2] = assay: Novel tank test (NTT); type: in vivo; conditions: for NTT. Time spent in upper half of tank, Median: 10 min after injection, 5 min; for NTT. Time spent in upper half of tank, Median / NTT. Distance traveled, Median: exp group
Procedure: (§1) Control groups were treated in parallel with vehicle alone. For drug injection, the fish were anesthetized briefly by placing them in 10°C water. The vehicle controls were tested in parallel.
(§2) Behavioral testing was initiated 10 min after drug injection, starting with the novel tank test (NTT), followed immediately thereafter by the light–dark box (LDB) and the social preference test (SPT). The NTT was adapted from [Maximino et al. (2013)] with the behavior video-recorded and the data processed using EthoVision XT14 (Noldus). The distance traveled, speed, number of visits to the bottom, middle and top thirds of the aquarium, respectively, and the times spent in each of these zones during the initial 5 min in the tank were recorded. A decreased time spent at the surface of the NTT apparatus reflects a reduction in exploratory behavior or increased hiding motivation ([Sackerman et al., 2010]). The behavior in the LDB ([Maximino et al., 2011]) and SPT ([Parker et al., 2014]) was video recorded and processed using RealTimer (Open Science LCC, Russia). The fish were added to the center zone of a three-zone aquarium and allowed to adapt for 1–2 min before removal of the septa separating the center from the flanking zones. The time spent and the number of visits to the light and dark flanking zones and the latency to enter the lit zone were recorded during a 5-min session. Stress of fish is associated with increased time spent in the dark compartment (scototaxis) ([Maximino et al., 2011]). For the SPT, the residence time and the number of visits to the three equally sized zones (near the shoal, in the center zone of the aquarium, and near the wall opposite to the shoal) were assessed during a 5-min session. Increased shoal preference (shoaling reflex) is thought to represent a protective response to a predator ([Nguyen et al., 2014]). All behavioral testing was done in the light phase using 500 lux (NTT, LDB) or 200 lux (SPT) illumination.

Danio rerio [3] = assay: Light–dark box (LDB); type: in vivo; conditions: for LDB. Time spent in lit compartment, Median: 5 min session, exp group; for LDB, effect on time spent in the lit compartment vs vehicle: most informative dosage, Figure 2C
Procedure: as §1, §2

Danio rerio [4] = assay: Social preference test (SPT); type: in vivo; conditions: for SPT. Time spent out of shoaling zone, Median: 5 min session, exp group; for SPT, effect on time spent out of the shoaling zone vs vehicle: most informative dosage, Figure 2D
Procedure: as §1, §2

[5] = competition of [3H]-LCGA-17 (16 nM) binding, rat brain membranes, Table S1
[6] = rat brain membranes, result in words
[7] = competition of [3H]-LCGA-17 binding to rat brain (cortical) membranes, text and Figure 3

## NCC(CC(=O)O)c1ccc(Cl)cc1 (centres unmarked) [Baclofen]
[1]; [5]
  IC50: > 100 µM
[1]; [6]
  cross-reactivity with / competition at the [3H]-LCGA-17 binding site: no cross-reactivity

## CC(C)(C)OC(=O)c1ncn2c1[C@@H]1CCCN1C(=O)c1c(Br)cccc1-2 [Bretazenil]
[1]
  IC50: > 100 µM
  cross-reactivity with / competition at the [3H]-LCGA-17 binding site: distinct

## CC(=O)[C@H]1CC[C@H]2[C@@H]3CC[C@H]4C[C@H](O)CC[C@]4(C)[C@H]3CC[C@]12C [Allopregnanolone]
[1]
  IC50: > 100 µM
  cross-reactivity with / competition at the [3H]-LCGA-17 binding site: distinct

## COc1ccc(-n2nc3c4ccccc4[nH]cc-3c2=O)cc1 [CGS-9895]
[1]; [5]
  IC50: > 100 µM
[1]; [6]
  cross-reactivity with / competition at the [3H]-LCGA-17 binding site: no cross-reactivity

## Cn1c2ccc(F)cc2c2c(C(=O)N3CCCC3)cn(-c3ccccc3)c(=O)c21 [SL 651498]
[1]; [5]
  IC50: > 100 µM
[1]; [6]
  cross-reactivity with / competition at the [3H]-LCGA-17 binding site: distinct

## NCCCC(=O)O [GABA, γ-aminobutyric acid]
[1]; [6]
  cross-reactivity with / competition at the [3H]-LCGA-17 binding site: no cross-reactivity

## Oc1noc2c1CCNC2 [Gaboxadol (THIP), Gaboxadol]
[1]
  IC50: > 100 µM
  cross-reactivity with / competition at the [3H]-LCGA-17 binding site: distinct

## C[C@@H](CN1CCC(Cc2ccccc2)CC1)[C@@H](O)c1ccc(O)cc1 [Ro-256981]
[1]; [5]
  IC50: > 100 µM
[1]; [6]
  cross-reactivity with / competition at the [3H]-LCGA-17 binding site: no cross-reactivity

## CCC(C)N(C)C(=O)c1cc2ccccc2c(-c2ccccc2Cl)n1 (centres unmarked) [PK-11195]
[1]; [5]
  IC50: > 100 µM

## COc1ccc(-c2ccc(=N)n(CCCC(=O)O)n2)cc1 [Gabazine]
[1]; [5]
  IC50: > 100 µM
[1]; [6]
  cross-reactivity with / competition at the [3H]-LCGA-17 binding site: no cross-reactivity

## O=C(c1ccc(F)cc1)C1CCN(CCn2c(=O)[nH]c3ccccc3c2=O)CC1 [Ketanserin]
[1]; [5]
  IC50: > 100 µM
[1]; [6]
  cross-reactivity with / competition at the [3H]-LCGA-17 binding site: no cross-reactivity

## AspLysThrGlu (DKTE; printed: AspLysThrGlu) [LCGA-26]
Danio rerio [2]; 1 mg/kg i.p.
  NTT. Time spent in upper half of tank, Median: 58 s
  NTT. Distance traveled, Median: 1365 cm
Danio rerio [2]; 10 mg/kg
  NTT. Time spent in upper half of tank, Median: 72 s
  NTT. Distance traveled, Median: 1445 cm
Danio rerio [3]; 1 mg/kg i.p.
  LDB. Time spent in lit compartment, Median: 215 s
Danio rerio [3]; 10 mg/kg
  LDB. Time spent in lit compartment, Median: 243 s
Danio rerio [4]; 1 mg/kg i.p.
  SPT. Time spent out of shoaling zone, Median: 20 s
Danio rerio [4]; 10 mg/kg
  SPT. Time spent out of shoaling zone, Median: 27 s

## N[C@@]1(C(=O)O)CC[C@H]2[C@H](C(=O)O)[C@H]21 [LY-354740]
[1]; [5]
  IC50: > 100 µM
[1]; [6]
  cross-reactivity with / competition at the [3H]-LCGA-17 binding site: no cross-reactivity

## Fc1ccc(C(OCCN2CCN(CCCc3ccccc3)CC2)c2ccc(F)cc2)cc1 [GBR-12909]
[1]; [5]
  IC50: > 100 µM

## Cn1ncnc1COc1nn2c(-c3c(F)cccc3F)nnc2cc1C1CCC1 [MK0343]
[1]; [5]
  IC50: > 100 µM
[1]; [6]
  cross-reactivity with / competition at the [3H]-LCGA-17 binding site: distinct

## O=C(N/N=C/c1ccccc1O)c1ccccc1O [Salicylidene salicylhydrazide]
[1]
  cross-reactivity with / competition at the [3H]-LCGA-17 binding site: distinct
[1]; [5]
  IC50: > 100 µM

## CC(=O)[C@H]1CC[C@H]2[C@@H]3CC=C4C[C@@H](O)CC[C@]4(C)[C@H]3CC[C@]12C [Pregnenolone]
[1]; [5]
  IC50: > 100 µM

## O=C(O)C1=CCNCC1 [isoguvacine]
[1]; [6]
  cross-reactivity with / competition at the [3H]-LCGA-17 binding site: distinct

## CC(C(O)c1ccc(O)cc1)N1CCC(Cc2ccccc2)CC1 (centres unmarked) [Ifenprodil]
[1]; [5]
  IC50: > 100 µM

## pregnenolone sulfate [PREGS]
[1]; [7]
  IC50: > 100 µM
[1]; [6]
  cross-reactivity with / competition at the [3H]-LCGA-17 binding site: failed to compete

## CCCN(CCC)C1CCc2ccc(O)cc2C1 (centres unmarked) [7-OH-DPAT]
[1]
  cross-reactivity with / competition at the [3H]-LCGA-17 binding site: no cross-reactivity
[1]; [5]
  IC50: > 100 µM

## NCC(=O)O [Glycine]
[1]
  IC50: > 100 µM
  cross-reactivity with / competition at the [3H]-LCGA-17 binding site: no cross-reactivity

## N[C@@H](CCC(=O)O)C(=O)O [Glutamate]
[1]; [5]
  IC50: > 100 µM
[1]; [6]
  cross-reactivity with / competition at the [3H]-LCGA-17 binding site: no cross-reactivity

## CN1CCC[C@H]1c1cccnc1 [Nicotine]
[1]
  IC50: > 100 µM
  cross-reactivity with / competition at the [3H]-LCGA-17 binding site: no cross-reactivity

## NC(N)=NCCCCN=C(N)N [Arcaine]
[1]; [5]
  IC50: > 100 µM
[1]; [6]
  cross-reactivity with / competition at the [3H]-LCGA-17 binding site: no cross-reactivity

## O=C(CCCN1CCC(O)(c2ccc(Cl)cc2)CC1)c1ccc(F)cc1 [Haloperidol]
[1]; [6]
  cross-reactivity with / competition at the [3H]-LCGA-17 binding site: no cross-reactivity

## COCCCC/C(=N\OCCN)c1ccc(C(F)(F)F)cc1 [fluvoxamine, Fluvoxamine]
Danio rerio [2]; 5 mg/kg
  NTT. Time spent in upper half of tank, Median: 41 s
  NTT. Distance traveled, Median: 1267 cm
Danio rerio [2]; 10 mg/kg
  NTT. Time spent in upper half of tank, Median: 32 s
  NTT. Distance traveled, Median: 1313 cm
Danio rerio [2]; most informative dosage, Figure 2A: LCGA peptides 10 mg/kg, fluvoxamine 5 mg/kg, diazepam 5 mg/kg
  NTT, effect on time spent in the upper half of the tank vs vehicle: anxiolytic-like effect
Danio rerio [3]; 5 mg/kg
  LDB. Time spent in lit compartment, Median: 118 s
Danio rerio [3]; 10 mg/kg
  LDB. Time spent in lit compartment, Median: 94 s
Danio rerio [3]
  LDB, effect on time spent in the lit compartment vs vehicle: Neither fluvoxamine nor the other LCGA peptides affected the behavior
Danio rerio [4]; 5 mg/kg
  SPT. Time spent out of shoaling zone, Median: 90 s
Danio rerio [4]; 10 mg/kg
  SPT. Time spent out of shoaling zone, Median: 84 s
Danio rerio [4]
  SPT, effect on time spent out of the shoaling zone vs vehicle: failed to affect behavior

## Cc1ccc(-c2nc3ccc(C)cn3c2CC(=O)N(C)C)cc1 [Zolpidem]
[1]
  IC50: > 100 µM

## CC1(C)CC(=O)c2c(SCCO)sc(-c3nccs3)c2C1 [TB21007]
[1]; [5]
  IC50: > 100 µM
[1]; [6]
  cross-reactivity with / competition at the [3H]-LCGA-17 binding site: distinct

## O=C(CCCN1CCC2(CC1)C(=O)NCN2c1ccccc1)c1ccc(F)cc1 [Spiperone]
[1]; [6]
  cross-reactivity with / competition at the [3H]-LCGA-17 binding site: no cross-reactivity

## TrpAspGlnVal (WDQV; printed: TrpAspGlnVal) [LCGA-59]
Danio rerio [2]; 1 mg/kg i.p.
  NTT. Time spent in upper half of tank, Median: 69 s
  NTT. Distance traveled, Median: 1730 cm
Danio rerio [2]; 10 mg/kg
  NTT. Time spent in upper half of tank, Median: 74 s
  NTT. Distance traveled, Median: 1636 cm
Danio rerio [3]; 1 mg/kg i.p.
  LDB. Time spent in lit compartment, Median: 74 s
Danio rerio [3]; 10 mg/kg
  LDB. Time spent in lit compartment, Median: 87 s
Danio rerio [3]
  LDB, effect on time spent in the lit compartment vs vehicle: Neither fluvoxamine (5 mg/kg) nor LCGA-59 and LCGA-83 (10 mg/kg) affected the behavior
Danio rerio [4]; 1 mg/kg i.p.
  SPT. Time spent out of shoaling zone, Median: 52 s
Danio rerio [4]; 10 mg/kg
  SPT. Time spent out of shoaling zone, Median: 88 s
Danio rerio [4]
  SPT, effect on time spent out of the shoaling zone vs vehicle: failed to affect behavior

## NCCCNCCCCNCCCN [Spermine]
[1]; [5]
  IC50: > 100 µM
[1]; [6]
  cross-reactivity with / competition at the [3H]-LCGA-17 binding site: no cross-reactivity

## C[C@]12CC[C@@H](O)C[C@H]1CC[C@@H]1[C@@H]2CC[C@]2(C)[C@@H](C(=O)CO)CC[C@@H]12 [THDOC]
[1]
  cross-reactivity with / competition at the [3H]-LCGA-17 binding site: distinct
[1]; [5]
  IC50: > 100 µM

## CCN1CCCC1CNC(=O)c1cc(S(N)(=O)=O)ccc1OC (centres unmarked) [Sulpiride]
[1]; [5]
  IC50: > 100 µM
[1]; [6]
  cross-reactivity with / competition at the [3H]-LCGA-17 binding site: no cross-reactivity

## CCCCCCN(CCCCCC)C(=O)Cc1c(-c2ccc(F)cc2)[nH]c2ccccc12 [FGIN-1-27]
[1]
  cross-reactivity with / competition at the [3H]-LCGA-17 binding site: distinct
[1]; [5]
  IC50: > 100 µM

## NCC1(CC(=O)O)CCCCC1 [Gabapentin]
[1]; [7]
  IC50: ~11 µM
[1]; competition of [3H]-LCGA-17 binding to rat brain (cortical) membranes, text and Figure 3, listed as gabapentin
  IC50: 11 µM

## PheLeuProTyr (FLPY; printed: PheLeuProTyr) [LCGA-83]
Danio rerio [2]; 1 mg/kg i.p.
  NTT. Time spent in upper half of tank, Median: 73 s
  NTT. Distance traveled, Median: 1500 cm
Danio rerio [2]; 10 mg/kg
  NTT. Time spent in upper half of tank, Median: 76 s
  NTT. Distance traveled, Median: 1589 cm
Danio rerio [3]; 1 mg/kg i.p.
  LDB. Time spent in lit compartment, Median: 128 s
Danio rerio [3]; 10 mg/kg
  LDB. Time spent in lit compartment, Median: 249 s
Danio rerio [3]
  LDB, effect on time spent in the lit compartment vs vehicle: Neither fluvoxamine (5 mg/kg) nor LCGA-59 and LCGA-83 (10 mg/kg) affected the behavior
Danio rerio [4]; 1 mg/kg i.p.
  SPT. Time spent out of shoaling zone, Median: 37 s
Danio rerio [4]; 10 mg/kg
  SPT. Time spent out of shoaling zone, Median: 46 s
Danio rerio [4]
  SPT, effect on time spent out of the shoaling zone vs vehicle: failed to affect behavior

## NCc1cc(=O)[nH]o1 [Muscimol]
[1]
  cross-reactivity with / competition at the [3H]-LCGA-17 binding site: no cross-reactivity
[1]; [5]
  IC50: > 100 µM
